US10632144B2, “Low polydispersity, low molecular weight biotechnological chondroitin sulfate with anti-inflammatory and antiarthritis activity and use thereof in the prevention of osteoarthritis” (Gnosis S.p.A., priority 2012, dated 2020)

Tests used:
[1] = test system: rats with Adjuvant Arthritis (AA); experiment: Adjuvant arthritis (AA) in rats: change in body weight; format: in vivo, male Lewis rats; conditions: for increase in body weight relative to that of the healthy controls: 900 mg/kg/day, end of the study
Protocol: (§1) AA was induced by a single intradermal injection of Mycobacterium butyricum in […] Freund's adjuvant. The study involved one group of healthy animals (HC), one group of untreated arthritic animals (AC) and two groups of arthritic animals treated with two different regimens. The first treatment regimen involved pre-treatment consisting of administration of 900 mg/kg of biotechnological CS a day for 14 days before arthritis was induced, continuing for 28 days after the induction of AA (PT). The second treatment regimen involved the administration of 900 mg/kg of biotechnological CS a day only during the 28 days after induction of AA (T).
(§2) 40 male Lewis rats weighing between 150 and 190 g were divided at random into four groups of 10 animals each, housed in polypropylene cages in an environment maintained at the temperature of 22±2° C., and fed on a standard laboratory diet with unlimited access to water.
(§3) The experimental groups were as follows:
(§4) 3) A group of arthritic rats orally treated with biotechnological CS at the dose of 900 mg/day per kg of body weight for 28 days after induction of AA (days 0-28 of the experiment) (T).
(§5) 4) A group orally pre-treated with biotechnological CS at the dose of 900 mg/day per kg of body weight for 14 days preceding the induction of AA, and for the 28 days after induction of AA (days −14 to 28 of the experiment) (PT).
(§6) The CS of the invention was dissolved in distilled water at the concentration of 20 mg/ml and administered orally as a single daily dose by gavage.
The body weight of the rats was measured before induction of AA (day 0), on days 7, 14 and 21, and at the end of the treatment (day 28). The effect of the treatment on this parameter was evaluated by comparing the weight increases of the different groups during the treatment period.

interleukin-6 (IL-6) = experiment: AA rat model, biotech vs animal LMW-CS: IL-6 plasma levels; format: in vivo, male Lewis rats
Protocol: (§7) As described in Example 5, commercial (high-molecular-weight) chondroitin sulfate material was subjected to depolymerization according to Cho, under controlled condition, until the desired mean MW was reached.
(§8) The product of Example 5 was tested in vivo vs. biotechnological chondroitin of the invention obtained as described in Ex. 4 (equivalent to the product obtained from any of the Examples 1, 2 or 3).
(§9) Two key parameters were analyzed to determine the efficacy of the treatment in reducing the inflammation related to osteoarthritis: C reactive protein (CRP) and interleukin-6 (IL-6) plasma levels. […] CRP is another important marker for systemic inflammation, its plasmatic level rises up during arthritis progression. AA was induced in male Lewis rats with a single intradermal injection of heat-inactivated Mycobacterium butyricum in […] Freund's adjuvant. The following anti-osteoarthritic treatment consisted in daily oral (900 mg/kg b.w.) administrations of LMW-CS starting from day 0, i.e. the day of bacterial inoculation.

[2] = test system: rats with Adjuvant Arthritis (AA); experiment: Adjuvant arthritis (AA) in rats: hind paw oedema; format: in vivo, male Lewis rats
Protocol: as §1, §2, §3, §4, §5, §6
The oedema that developed as a consequence of arthritis was measured by observing the increase in volume of the hind paw with a caliper suitable for the measurement. The measurements were performed before the induction of AA (day 0) and on days 7, 14, 21 and 28 of the study.
The data were expressed as the percentage increase in oedema calculated with the following formula: [(Dayn/Day0)×100]−100, Day0 being the measurement on the initial day and Dayn the measurement on the day considered.

C reactive protein (CRP) = experiment: AA rat model, biotech vs animal LMW-CS: CRP plasma levels; format: in vivo, male Lewis rats
Protocol: as §7, §8, §9

[3] = test system: auxotrophic strains of E. coli; experiment: Bacterial reverse mutation test (OECD 471); format: cell-based
Protocol: (§10) The CS according to the invention was also tested for its toxicological safety in animals and on cell cultures according to various protocols designed to assess its potential genotoxicity at cell level and acute oral toxicity in the rat. All the tests used were validated and conducted according to OECD guidelines for pharmaceutical products.
(§11) The biotechnological CS was subjected to mutagenesis tests in bacterial cells (bacterial reverse mutation, Ref. OECD 471) which tested the ability of the product to induce the appearance of reverse mutants in auxotrophic strains of E. coli and Salmonella typhimurium.

[4] = test system: auxotrophic strains of Salmonella typhimurium; experiment: Bacterial reverse mutation test (OECD 471); format: cell-based
Protocol: as §10, §11

Sprague-Dawley rats = experiment: Acute toxicity after oral administration; format: in vivo; conditions: up to 2000 mg/kg body weight
Protocol: as §10
Finally, acute toxicity after oral administration was examined in Sprague-Dawley rats up to the dose of 2000 mg/kg of body weight.

[5] = test system: rats with Adjuvant Arthritis (AA); experiment: Adjuvant arthritis (AA) in rats: arthritis score; format: in vivo, male Lewis rats; design: key to Arthritis score: sum of oedema (1-8), forepaw diameter (1-5), scab diameter (1-5) scores
Protocol: as §1, §2, §3, §4, §5, §6
The arthritis score was evaluated by allocating a score to the observation of paw joint swelling (oedema), the extent of periarticular erythema and the diameter of the scab at the adjuvant injection site at the base of the tail. The arthritis score or arthrogram was measured as the sum total of oedema (in ml, score 1 to 8), plus the diameter of the forepaw (in mm, max score 1 to 5), plus the diameter of the scab at the site of application of Mycobacterium butyricum measured parallel to the spinal column (in mm, max score 1 to 5), for each animal.

[6] = Pre-Treatment (PT): 900 mg/kg/day oral, days −14 to 28, day 0
[7] = Pre-Treatment (PT): 900 mg/kg/day oral, days −14 to 28, day 7
[8] = Pre-Treatment (PT): 900 mg/kg/day oral, days −14 to 28, day 14
[9] = Pre-Treatment (PT): 900 mg/kg/day oral, days −14 to 28, day 21
[10] = Pre-Treatment (PT): 900 mg/kg/day oral, days −14 to 28, day 28
[11] = Treatment (T): 900 mg/kg/day oral, days 0-28, day 0
[12] = Treatment (T): 900 mg/kg/day oral, days 0-28, day 7
[13] = Treatment (T): 900 mg/kg/day oral, days 0-28, day 14
[14] = Treatment (T): 900 mg/kg/day oral, days 0-28, day 21
[15] = Treatment (T): 900 mg/kg/day oral, days 0-28, day 28
[16] = daily oral 900 mg/kg b.w. from day 0, day 14
[17] = daily oral 900 mg/kg b.w., 14 days of treatment

“Low-molecular-weight chondroitin sulfate sodium salt [LMW-CS]” was tested, and the “Change in body weight: Δ(dayn − day0)” value [1, 6] was 0.0 g, the “Change in body weight: Δ(dayn − day0)” value [1, 7] was 92.96 g and the “Change in body weight: Δ(dayn − day0)” value [1, 8] was 107.26 g. For the same substance, the “Change in body weight: Δ(dayn − day0)” value [1, 9] was 93.39 g, the “Change in body weight: Δ(dayn − day0)” value [1, 10] was 108.63 g and the “increase in body weight relative to that of the healthy controls” value ([1]; Pre-treatment (PT)) was 73%. The “Change in body weight: Δ(dayn − day0)” value [1, 11] was 0.0 g, the “Change in body weight: Δ(dayn − day0)” value [1, 12] was 85.19 g and the “Change in body weight: Δ(dayn − day0)” value [1, 13] was 89.19 g. The “Change in body weight: Δ(dayn − day0)” value [1, 14] was 68.39 g, the “Change in body weight: Δ(dayn − day0)” value [1, 15] was 79.78 g and the “increase in body weight relative to that of the healthy controls” value ([1]; Treatment alone (T)) was 54%. For the same substance, the IL-6 plasma levels (interleukin-6 (IL-6); [16]) was 233.9 pg/mL, the “effect of treatment on IL-6 plasma levels” value (interleukin-6 (IL-6); [17]) was “decreased” and the “Change in hind paw swelling: [(Dayn/Day0) × 100] − 100” value (“Change … [(Dayn/Day0) × 100] − 100” for short) [2, 6] was 0.0%. For the same substance, the “Change … [(Dayn/Day0) × 100] − 100” value [2, 7] was 15.4%, the “Change … [(Dayn/Day0) × 100] − 100” value [2, 8] was 26.7% and the “Change … [(Dayn/Day0) × 100] − 100” value [2, 9] was 46.5%. For the same substance, the “Change … [(Dayn/Day0) × 100] − 100” value [2, 10] was 49.7%, the “oedema developed in the hind paw vs untreated controls” value ([2]; Pre-treated animals (PT), 900 mg/kg/day) was “significantly reduced” and the “Change … [(Dayn/Day0) × 100] − 100” value [2, 11] was 0.0%. The “Change … [(Dayn/Day0) × 100] − 100” value [2, 12] was 13.1%, the “Change … [(Dayn/Day0) × 100] − 100” value [2, 13] was 34.5% and the “Change … [(Dayn/Day0) × 100] − 100” value [2, 14] was 62.8%. The “Change … [(Dayn/Day0) × 100] − 100” value [2, 15] was 61.4%, the CRP plasma levels (C reactive protein (CRP); [16]) was 548.8 µg/mL and the “effect of treatment on CRP plasma levels” value (C reactive protein (CRP); [17]) was “decreased”. For the same substance, the “bacterial mutagenicity (reverse mutants)” value [3] was “No significant increase”, the “bacterial mutagenicity (reverse mutants)” value [4] was “No significant increase” and the clinical signs (Sprague-Dawley rats; 14 days observation) was “did not show any clinical signs of suffering”. The mortality (Sprague-Dawley rats; 14 days observation) was “no mortality occurred”, the “autopsy of tissues and organs” value (Sprague-Dawley rats; end of the study) was “did not indicate any signs of toxicity” and the Arthritis score [5, 6] was 10.0. For the same substance, the Arthritis score [5, 7] was 10.1, the Arthritis score [5, 8] was 13.1 and the Arthritis score [5, 9] was 15.8. The Arthritis score ([5]; Pre-Treatment (PT): 900 mg/kg/day oral, days −14 to 28, day 28, listed as biotechnological CS, sulfate sodium salt) was 19, the Arthritis score ([5]; Pre-Treatment (PT): 900 mg/kg/day oral, days −14 to 28, day 28, sulfate sodium salt) was 19.0 and the Arthritis score [5, 11] was 10.0. It also gave an Arthritis score [5, 12] of 10.0, an Arthritis score [5, 13] of 18.1 and an Arthritis score [5, 14] of 22.7. The Arthritis score [5, 15] was 23.0 and the “influence on arthritis score during the study period” value ([5]; Treatment-only (T) group, 900 mg/kg/day) was “did not significantly influence”.
